This is an account of results in ChEMBL document CHEMBL1137423, “Nanomolar inhibition of the enterobactin biosynthesis enzyme, EntE: synthesis, substituent effects, and additivity” (Bioorg Med Chem Lett, 2006).

For experiment [1], the target named is T1, Enterobactin synthase component E (Escherichia coli K-12, UniProt P10378).
T1 sequence (P10378 whole entry): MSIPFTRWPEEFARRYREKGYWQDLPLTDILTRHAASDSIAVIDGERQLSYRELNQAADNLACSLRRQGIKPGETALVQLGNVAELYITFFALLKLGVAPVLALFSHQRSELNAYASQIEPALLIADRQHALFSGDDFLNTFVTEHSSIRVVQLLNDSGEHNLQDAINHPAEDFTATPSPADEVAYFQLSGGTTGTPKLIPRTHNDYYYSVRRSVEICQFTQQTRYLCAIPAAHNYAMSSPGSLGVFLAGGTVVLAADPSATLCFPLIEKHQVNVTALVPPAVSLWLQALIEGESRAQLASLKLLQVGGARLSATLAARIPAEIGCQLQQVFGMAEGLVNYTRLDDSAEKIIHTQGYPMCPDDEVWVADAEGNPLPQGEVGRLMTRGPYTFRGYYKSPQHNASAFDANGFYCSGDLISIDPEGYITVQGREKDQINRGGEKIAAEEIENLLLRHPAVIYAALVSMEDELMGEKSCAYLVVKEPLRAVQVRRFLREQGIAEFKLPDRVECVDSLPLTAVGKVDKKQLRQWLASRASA
Briefly: Binding affinity to EntE. The conditions noted are these: read-out: Ki app.

For experiment [2], the target named is T1, Enterobactin synthase component E. Briefly: Binding affinity to EntE corrected to substrate competition.
Experiment [3] addresses T2, Enterobactin synthase component E (Escherichia coli K-12) (UniProt P10378).
T2 sequence (whole entry): T1 sequence (P10378 whole entry)
Description: Inhibition of EntE at 0.0006 M.

As to `O=C(NOP(=O)(O)OC[C@H]1O[C@@H](n2cnc3cncnc32)[C@H](O)[C@@H]1O)c1ccccc1`, in experiment [1], the Ki came to 13 µM.
In the case of `O=C(NOP(=O)(O)OC[C@H]1O[C@@H](n2cnc3cncnc32)[C@H](O)[C@@H]1O)c1ccccc1O`, in experiment [1], the Ki came to 0.037 µM.
Consider `O=C(NOP(=O)(O)OC[C@H]1O[C@@H](n2cnc3cncnc32)[C@H](O)[C@@H]1O)c1cccc(O)c1O`, for which the Ki is 0.009 µM in experiment [1] and 0.0045 µM in experiment [2].
For `CC(=O)NOP(=O)(O)OC[C@H]1O[C@@H](n2cnc3cncnc32)[C@H](O)[C@@H]1O`, the inhibition in experiment [3] is under 10%. In addition, the Ki in experiment [1] is at least 1000 µM.

Broadly, the inhibition is the relative decrease from the control value, in per cent. Lower therefore signals a weak effect.
